Results from patent US20160115540A1, “PRODRUGS AND DRUGS” (Biogen MA Inc., priority 2013, published 2016).
Where a name gives a salt, the structure may show the parent alone.

System: liver
Experiment: Transcriptional profiling on Affymetrix GeneChips, single dose, naïve mice: liver
Format: in vivo, C57BL/6 mice
Conditions: for Number of differentially expressed genes identified: Liver: Naïve, Single Dose
Experimental: Treated mice were sacrificed at 2, 7, or 12 hours. Tissues (liver, spleen, kidney, jejunum, cortex, hippocampus, striatum and whole blood) were collected and analyzed by transcriptional profiling on mouse Affymetrix GeneChips.
Tissues (liver, spleen, kidney, jejunum, cortex, hippocampus, striatum and whole blood) were collected and analyzed by transcriptional profiling on mouse Affymetrix GeneChips.
Animals were exposed to CO2 and whole blood collected via cardiac puncture. Two 100 μl aliquots of whole blood were collected in 1.5 mL microcentrifuge tubes and snap frozen in liquid nitrogen. Peripheral (liver, spleen, kidney and jejunum) and CNS brain (cerebellum, hippocampus, striatum and cortex) tissues were harvested and snap frozen in liquid nitrogen, with special care taken to collect tissues of similar size and from the same location. All samples were stored at −80° C. until RNA extraction was conducted.
For RNA preparation, frozen tissues were placed in 2 mL RNAse-free 96-well blocks with 1.5 mL QIAzol Lysis Reagent (QIAgen) and a 3.2 mm stainless steel bead (BioSpec Products, Bartlesville, Okla.). Tissues were disrupted for four cycles of 45 seconds in a Mini-Beadbeater (Biospec Products). RNA was extracted in chloroform and the aqueous phase was mixed with an equal volume of 70% ethanol. Extracted RNA was applied to RNeasy 96 plates and purified by the spin method according to the manufacturer's protocol (RNeasy 96 Universal Tissue Protocol, QIAgen, Hilden Germany).
Automated sample amplifications and biotin labelings were carried out using the NuGEN Ovation RNA Amplification system V2 (Cat #3100), Ovation WB reagent (Cat #1300) and Encore Biotin module (Cat #4200) (NuGEN Technologies, Inc, San Carlos, Calif.) according to manufacturer's recommendations using an Arrayplex automated liquid handler (Beckman Coulter, Indianapolis, Ind.). Two micrograms of biotin labeled sscDNA probe were hybridized to Affymetrix GeneChip Affymetrix HT_MG-430_PM plate arrays with modified conditions as described in Allaire et al. Washing and staining of the hybridized arrays were completed as described in the GeneChip Expression analysis technical manual for HT plate arrays using the Genechip® Array Station (Affymetrix, Santa Clara, Calif.) with modifications as described in Allaire et al. The processed GeneChip® plate arrays were scanned using GeneTitan scanner (Affymetrix, Santa Clara, Calif.).
Affymetrix scans were subject to quality control (QC) measures. These tests included a visual inspection of the distribution of raw signal intensities and an assessment of RNA degradation, relative log expression (RLE), and normalized unsealed standard error (NUSE). All sample scans that passed these QC metrics were included in the analysis.
All CEL files were subjected to GC-content-based Robust Multi-array Average (GCRMA) normalization (version 2.20.0) (Irizarry R A, et al. Nucleic Acids Res 2003; 31:e15; Li C, et al. Genome Biol 2001; 2:[…]0032). Expression levels were log (base 2) transformed.
All calculations and analyses were carried out using R (version 2.11.1) and Bioconductor computational tools (Gentleman R. Springer Science+Business Media 2005).

[1] = liver, 100 mg/kg, 2 hr, vs matched vehicle controls
[2] = liver, 100 mg/kg, 7 hr, vs matched vehicle controls

## COC(=O)/C=C/C(=O)OC [DMF, dimethyl fumarate]
100DMF-vs-100MMF, 12 h, probe 1417441_PM_at, naïve single dose, tissue section before SPLEEN
  FC Dnajc12 (DnaJ (Hsp40) homolog, subfamily C, member 12): −2.49
100DMF-vs-100MMF, 12 h, probe 1417507_PM_at, naïve single dose, tissue section before SPLEEN
  FC Cyb561 (cytochrome b-561): −2.02
100DMF-vs-100MMF, 12 h, probe 1419005_PM_at, naïve single dose, tissue section before SPLEEN
  FC Crybb3 (crystallin, beta B3): −1.69
100DMF-vs-100MMF, 12 h, probe 1446368_PM_at, naïve single dose, tissue section before SPLEEN
  FC 9130221J18Rik (RIKEN cDNA 9130221J18 gene): −1.93
LIVER, 100DMF-vs-100MMF, 7 h
  FC Tnfrsf19 (1448147_PM_at): 1.73
LIVER, 100DMF-vs-100MMF, 12 h
  FC Isyna1 (1415977_PM_at): −1.76
LIVER, 100DMF-vs-Veh, 2 h
  FC 1447411_PM_at (no gene symbol): 2.57
  FC 5430435G22Rik (1435830_PM_a_at): 1.79
  FC 9130221J17Rik (1443159_PM_at): 1.54
  FC Abcc1 (1452233_PM_at): 1.75
  FC Akr1b8 (1448894_PM_at): 2.18
  FC Clec4n (1419627_PM_s_at): 2.34
  FC Clec4d (1420804_PM_s_at): 2.30
  FC Figf (1438953_PM_at): 2.23
  FC Figf (1438954_PM_x_at): 1.90
  FC Figf (1449528_PM_at): 1.66
  FC Hmox1 1448239_PM_at: 2.37
  FC Pgd (1436771_PM_x_at): 1.59
  FC Pgd (1437380_PM_x_at): 1.61
  FC Ppfibp2 (1417801_PM_a_at): 2.38
  FC Srxn1 (1419942_PM_at): 1.69
  FC Srxn1 (1426875_PM_s_at): 1.64
  FC Srxn1 (1451680_PM_at): 1.59
LIVER, 100DMF-vs-Veh, 7 h
  FC Adora1 (1435495_PM_at): 1.50
  FC Akr1b8 (1448894_PM_at): 1.58
  FC Bmp6 (1450759_PM_at): 1.57
  FC Clec4n (1419627_PM_s_at): 2.01
  FC Nqo1 (1423627_PM_at): 1.81
LIVER, 100DMF-vs-Veh, 12 h
  FC Gstm4 (1424835_PM_at): 1.54
Liver
  Number of genes, DMF Only / MMF Only: 2
100 mpk DMF-vs-100 mpk MMF, 2 h after last dosing
  Number of differentially expressed genes identified: Liver: 0
100 mpk DMF-vs-100 mpk MMF, 7 h after last dosing
  Number of differentially expressed genes identified: Liver: 1
100 mpk DMF-vs-100 mpk MMF, 12 h after last dosing
  Number of differentially expressed genes identified: Liver: 5
100 mpk, vs Vehicle, 2 h after last dosing
  Number of differentially expressed genes identified: Liver: 18
100 mpk, vs Vehicle, 7 h after last dosing
  Number of differentially expressed genes identified: Liver: 5
100 mpk, vs Vehicle, 12 h after last dosing
  Number of differentially expressed genes identified: Liver: 1
[1]
  Murine Liver DEGs: Abcc1 (1452233_PM_at): 1.75
  Murine Liver DEGs: Akr1b8 (1448894_PM_at): 2.18
  Murine Liver DEGs: Clec4n (1419627_PM_s_at): 2.34
  Murine Liver DEGs: Clec4d (1420804_PM_s_at): 2.30
  Murine Liver DEGs: Figf (1438953_PM_at): 2.23
  Murine Liver DEGs: Hmox1 (1448239_PM_at): 2.37
  Murine Liver DEGs: Pgd (1436771_PM_x_at): 1.59
  Murine Liver DEGs: Ppfibp2 (1417801_PM_a_at): 2.38
  Murine Liver DEGs: Srxn1 (1419942_PM_at): 1.69
[2]
  Murine Liver DEGs: Adora1 (1435495_PM_at): 1.50
  Murine Liver DEGs: Akr1b8 (1448894_PM_at): 1.58
  Murine Liver DEGs: Bmp6 (1450759_PM_at): 1.57
  Murine Liver DEGs: Clec4n (1419627_PM_s_at): 2.01
  Murine Liver DEGs: Nqo1 (1423627_PM_at): 1.81
liver, 100 mg/kg, 12 hr, vs matched vehicle controls
  Murine Liver DEGs: Gstm4 (1424835_PM_at): 1.12
liver, 2 hr
  Abcc1 (probe set 1452233_PM_at) differential expression: 1.75
  Akr1b8 (probe set 1448894_PM_at) differential expression: 2.18
  Clec4n (probe set 1419627_PM_s_at) differential expression: 2.34
  Clec4d (probe set 1420804_PM_s_at) differential expression: 2.30
  Figf (probe set 1438953_PM_at) differential expression: 2.23
  Hmox1 (probe set 1448239_PM_at) differential expression: 2.37
  Pgd (probe set 1436771_PM_x_at) differential expression: 1.59
  Ppfibp2 (probe set 1417801_PM_a_at) differential expression: 2.38
  Srxn1 (probe set 1419942_PM_at) differential expression: 1.69
liver, 7 hr
  Adora1 (probe set 1435495_PM_at) differential expression: 1.50
  Akr1b8 (probe set 1448894_PM_at) differential expression: 1.58
  Bmp6 (probe set 1450759_PM_at) differential expression: 1.57
  Clec4n (probe set 1419627_PM_s_at) differential expression: 2.01
  Nqo1 (probe set 1423627_PM_at) differential expression: 1.81
liver, 12 hr
  Gstm4 (probe set 1424835_PM_at) differential expression: 1.12
